Tested on: cells
Assay: not given
Conditions: cited from earlier work

Structure (SMILES) | concentration range of biological effects on cells
C#CCCCn1c(Cc2cc(OC)c(OC)c(OC)c2Cl)nc2c(N)nc(F)nc21 [PU24FCl] | 2-6 μM

Biological target: T1, HSP90α (Homo sapiens, UniProt P07900, I104V)
T1 construct: made in house; host or cells: E. coli (BL21)
Assay: Enzyme binding (competition fluorescence polarization) assay with TSD-FP probe
Conditions: method of Example A-1; incubation time not stated; read-out: Binding Affinity IC50
Experimental: The reaction can be followed kinetically using fluorescence (excitation λ=485 nm; emission λ=538 nm). The binding affinity of the test compound to HSP90 is determined by the changes in the polarized fluorescence; the intensity of the polarized fluorescence is proportional to the fraction of bound probe. A novel small molecule fluorescence probe, (S,E)-5-(2-(2-amino-7-(4-fluoro-2-(6-methoxypyridin-2-yl)phenyl)-4-methyl-7,8-dihydroquinazolin-5(6H)-ylideneaminooxy)ethylcarbamoyl)-2-(6-hydroxy-3-oxo-3H-xanthene-9-yl)benzoic acid (TSD-FP probe) was specifically developed for the assay. Inhibition constants (IC50) may be calculated by non-linear curve fitting of the compound concentrations and fluorescence intensities to the standard IC50 equation.
1. Enzyme Binding (Fluorescence Polarization) Assay for HSP90 Inhibitors.
a. Preparation of HSP90c Protein
This example describes cloning, expression and purification of a protein comprising the N-terminal domain of HSP90α. It should be noted that a variety of other expression systems and hosts are also suitable for the expression of such protein, as would be readily appreciated by one of skill in the art.
The sequence of human wild-type HSP90α is well known in the art; see, Chen B. et al. Genomics 2005 86:627-637. The gene encoding HSP90α can be isolated from RNA, cDNA or cDNA libraries. In this case, the gene encoding residues 9-236 of image clone 5270926 of HSP90α (ATCC) was isolated. This portion of the gene encoding a section of human HSP90α that includes the N-terminal nucleotide binding domain of human HSP90 was cloned into pET28a vector (Novagen). The DNA sequence of the vector is shown in SEQ ID NO: 1. Expression from this vector produced a protein consisting of the recombinant N-terminal nucleotide binding domain of HSP90α with a cleavable 6×-histidine tag and a cleavage site at the N-terminus. The amino acid sequence of this recombinant protein is shown in SEQ ID NO: 2.
Recombinant human N-terminal truncated His6-HSP90α was expressed in E. coli (BL21) cells with IPTG induction. Cell paste from 24×60 mL tubes (grown in a multi-tube airlift fermentor) was lysed using an automated sample lyser. Briefly, the pellet in each tube was suspended in 21 mL of lysis buffer consisting of 50 mM Tris pH 7.9, 50 mM NaCl, 1 mM MgCl2, 0.6 g/L Lysozyme (Sigma), 100 μL/L Benzonase (Novagen). […] After incubation, 5 M NaCl was added to bring the final salt concentration to 400 mM. The tubes were sonicated for 50 seconds and then centrifuged at 3400 rpm for 50 min. The supernatants were pooled and 4 ml of ProBond Ni resin (Invitrogen) was added. After at least 30 minutes, the resin was spun down, washed with 25 mM Tris pH 7.6, 400 mM NaCl, 20 mM imidazole, poured into a column and washed with 10 column volumes of the same buffer. The protein was eluted from the column using 3 column volumes of 25 mM Tris pH 7.6, 400 mM NaCl, 400 mM imidazole. The eluate was loaded onto a Supedex 200 column (GE Healthcare) equilibrated with 25 mM Tris pH 7.6, 250 mM NaCl, 0.25 mM TCEP, 1 mM EDTA and peak fractions were pooled and concentrated to ˜6 mg/mL using 10 kDA MWCO centrifugal concentrators (Millipore). Aliquots were flash frozen in liquid nitrogen and stored at −80° C. All purification was done at 4° C.
b. Preparation of the Fluorescence Polarization Probe.
A fluorescein labeled small molecule was designed and synthesized as a probe (TSD-FP probe) for the determination of the binding affinity of the test compound to HSP90 proteins. The synthesis of the small molecule, (S,E)-2-amino-7-(4-fluoro-2-(6-methoxypyridin-2-yl)phenyl)-4-methyl-7,8-dihydroquinazolin-5(6H)-one O-2-aminoethyl oxime (Compound 24) was described in Examples 24 and 25 above. The TSD-FP probe was prepared according to the following procedure:
c. Assaying the In Vitro Enzymatic Activity of HSP90 Inhibitors.
The inhibitory effect of the compounds of the invention against HSP90α was determined by fluorescence polarization assay.

Structure (SMILES) | IC50 [nM]
COc1cccc(-c2cc(F)ccc2[C@H]2Cc3nc(N)nc(C)c3/C(=N/OC[C@H](O)CO)N2)n1 [Compound 33, (R,Z)-2-Amino-7-(4-fluoro-2-(6-methoxypyridin-2-yl)phenyl)-4-methyl-7,8-dihydropyrido[4,3-d]pyrimidin-5(6H)-one O—(R)-2,3-dihydroxypropyl oxime] | 4
COc1cccc(-c2cc(F)ccc2[C@H]2Cc3nc(N)nc(C)c3C(NOCC(CO)CO)=N2)n1 [Compound 35, (R,Z)-2-Amino-7-(4-fluoro-2-(6-methoxypyridin-2-yl)phenyl)-4-methyl-7,8-dihydropyrido[4,3-d]pyrimidin-5(6H)-one O-3-hydroxy-2-(hydroxymethyl)propyl oxime] | 13
COc1cccc(-c2cc(F)ccc2[C@H]2Cc3nc(N)nc(C)c3/C(=N/OCC[C@H](O)CO)N2)n1 [Compound 37, (R,Z)-2-amino-7-(4-fluoro-2-(6-methoxypyridin-2-yl)phenyl)-4-methyl-7,8-dihydropyrido[4,3-d]pyrimidin-5(6H)-one O—(S)-3,4-dihydroxybutyl oxime] | 6
COc1cccc(-c2cc(F)ccc2[C@H]2Cc3nc(N)nc(C)c3C(NOC3C[C@@H](O)[C@@H](O)C3)=N2)n1 (stereo partly drawn) [Compound 58, (7R,Z)-2-amino-7-(4-fluoro-2-(6-methoxypyridin-2-yl)phenyl)-4-methyl-7,8-dihydropyrido[4,3-d]pyrimidin-5(6H)-one O-(3R,4S)-3,4-dihydroxycyclopentyl oxime] | 5
COc1cccc(-c2cc(F)ccc2[C@H]2Cc3nc(N)nc(C)c3C(NOCC3C[C@@H](O)[C@@H](O)C3)=N2)n1 (stereo partly drawn) [Compound 59, (7R,Z)-2-amino-7-(4-fluoro-2-(6-methoxypyridin-2-yl)phenyl)-4-methyl-7,8-dihydropyrido[4,3-d]pyrimidin-5(6H)-one O-((3R,4S)-3,4-dihydroxycyclopentyl)methyl oxime] | 8
COc1cccc(-c2cc(F)ccc2[C@H]2Cc3nc(N)nc(C)c3/C(=N/O)N2)n1 [Compound 61, (R,Z)-2-amino-7-(4-fluoro-2-(6-methoxypyridin-2-yl)phenyl)-4-methyl-7,8-dihydropyrido[4,3-d]pyrimidin-5(6H)-one oxime] | 3
COc1cccc(-c2cc(F)ccc2[C@H]2Cc3nc(N)nc(C)c3C(NOCC3CCC(O)CC3)=N2)n1 (stereo partly drawn) [Compound 65, (R,Z)-2-amino-7-(4-fluoro-2-(6-methoxypyridin-2-yl)phenyl)-4-methyl-7,8-dihydropyrido[4,3-d]pyrimidin-5(6H)-one O-((1s,4S)-4-hydroxycyclohexyl)methyl oxime] | 10
COc1cccc(-c2cc(F)ccc2[C@H]2Cc3nc(N)nc(C)c3C(NOCCCO)=N2)n1 [Compound 78, (R,Z)-2-amino-7-(4-fluoro-2-(6-methoxypyridin-2-yl)phenyl)-4-methyl-7,8-dihydropyrido[4,3-d]pyrimidin-5(6H)-one O-3-hydroxypropyl oxime] | 4
COc1cccc(-c2cc(F)ccc2[C@H]2Cc3nc(N)nc(C)c3/C(=N/OCCCCO)N2)n1 [Compound 79, (R,Z)-2-amino-7-(4-fluoro-2-(6-methoxypyridin-2-yl)phenyl)-4-methyl-7,8-dihydropyrido[4,3-d]pyrimidin-5(6H)-one O-4-hydroxybutyl oxime] | 6
COc1cccc(-c2cc(F)ccc2[C@H]2Cc3nc(N)nc(C)c3C(NOCC(=O)N(C)C)=N2)n1 [Compound 83, (R,Z)-2-(2-amino-7-(4-fluoro-2-(6-methoxypyridin-2-yl)phenyl)-4-methyl-7,8-dihydropyrido[4,3-d]pyrimidin-5(6H)-ylideneaminooxy)-N,N-dimethylacetamide] | 8
COc1cccc(-c2cc(F)ccc2[C@H]2Cc3nc(N)nc(C)c3/C(=N/OCC(=O)N3CC[C@@H](F)C3)N2)n1 [Compound 85, 2-((Z)-((R)-2-amino-7-(4-fluoro-2-(6-methoxypyridin-2-yl)phenyl)-4-methyl-7,8-dihydropyrido[4,3-d]pyrimidin-5(6H)-ylidene)aminooxy)-1-((R)-3-fluoropyrrolidin-1-yl)ethanone] | 4
COc1cccc(-c2cc(F)ccc2[C@H]2Cc3nc(N)nc(C)c3/C(=N/O[C@@H](CCO)C(=O)N(C)C)N2)n1 [Compound 93, (S)-2-((Z)-((R)-2-amino-7-(4-fluoro-2-(6-methoxypyridin-2-yl)phenyl)-4-methyl-7,8-dihydropyrido[4,3-d]pyrimidin-5(6H)-ylidene)aminooxy)-4-hydroxy-N,N-dimethylbutanamide] | 8
COc1cccc(-c2cc(F)ccc2[C@H]2Cc3nc(N)nc(C)c3C(NOCC(=O)N(C)C[C@H](O)CO)=N2)n1 [Compound 96, 2-((Z)-((R)-2-amino-7-(4-fluoro-2-(6-methoxypyridin-2-yl)phenyl)-4-methyl-7,8-dihydropyrido[4,3-d]pyrimidin-5(6H)-ylidene)aminooxy)-N—((S)-2,3-dihydroxypropyl)-N-methylacetamide] | 13
COc1cccc(-c2cc(F)ccc2[C@H]2Cc3nc(N)nc(C)c3/C(=N/OCC(=O)N(C)CCO)N2)n1 [Compound 99, (R,Z)-2-(2-amino-7-(4-fluoro-2-(6-methoxypyridin-2-yl)phenyl)-4-methyl-7,8-dihydropyrido[4,3-d]pyrimidin-5(6H)-ylideneaminooxy)-N-(2-hydroxyethyl)-N-methylacetamide] | 8

Tested on: HSP90
Assay: not given
Conditions: transformed cells vs normal tissues; cited from earlier work

Structure (SMILES) | higher affinity for HSP90 from transformed cells compared to that from normal tissues
C#CCCCn1c(Cc2cc(OC)c(OC)c(OC)c2Cl)nc2c(N)nc(F)nc21 [PU24FCl] | 10-50 times

Source: patent publication US20110053873A1, “HSP90 INHIBITORS” (TAKEDA PHARMACEUTICAL COMPANY LIMITED, priority 2008, published 2011)
